Reference: patent US20220267280A1, “SMALL MOLECULE STIMULATORS OF THE CORE PARTICLE OF THE PROTEASOME” (Purdue Research Foundation, priority 2019, published 2022)
pEC50: −log10 of the molar value. “Also recorded” adds a separate entry of the source.

How the values were obtained:
20S CP [1] = experiment: standard FRET assay with the standard 20S CP; assay type: biochemical; details: for % activity increase (increase in 20S proteasome activity): derivative at 25 μM, in triplicate
Description: (§1) Miconazole was discovered as a stimulator of the 20S CP during a screen of the NIH Clinical Collection (NCC), using our previously described FRET assay.^15,21 However, this screen utilized a modulated FRET peptide that substituted an aspartic acid for the phenylalanine. Hydrolysis of the FRET peptide produces a fluorescent signal that can be monitored over time to determine the activity level of the 20S CP. Screening the NCC was performed in 384-well plates on a Tecan plate reader, monitoring the emission wavelength of the FRET peptide over a 1 hr period. Each compound was screened at a final concentration of 25 μM in singlet. A linear regression was performed for the change in fluorescence over time, producing a slope. This value for each compound was then compared to that of a DMSO control (20S CP basal level activity), which was included in triplicate for each plate. Primary hit compounds were determined to be those with a slope 50% greater than that of the DMSO control.
All primary hits were then validated in triplicate, using this reporter and the standard FRET reporter. Following triplicate validation, the hits were purchased from other sources and tested once again for the effect of each on the 20S CP, using the standard FRET assay (FIG. 2A).
Following a mechanistic analysis of miconazole, a dose-response study was performed using the FRET assay and the standard 20S CP.
Each derivative of miconazole is tested at 25 μM in triplicate, using our standard FRET assay. Included in each plate is 25 μM miconazole in triplicate as a positive control. This is also performed to determine how well a derivative compares to the original compound. Derivatives that enhance 20S CP activity are then used for further study.

20S CP [2] = experiment: GFP-α-synuclein fusion cell assay, Western blot for GFP; assay type: cell-based; details: for alpha-synuclein degradation (quantitation of gel bands): 25 μM for 16 hrs, duplicate
Source text: In this study, HEK-293T cells are transiently transfected to express a GFP-α-synuclein construct. α-Synuclein is a known substrate of the 20S CP, whereas GFP is too large and well-folded to enter the gate of the 20S CP for degradation. Therefore, 20S CP-mediated hydrolysis of this construct degrades the α-synuclein portion, leaving behind free GFP. […] After this time period, the cells were lysed and analyzed by Western blot for GFP. Because 20S CP-mediated hydrolysis of this fusion protein can only degrade the α-synuclein portion, the Western blot produces two clear bands, corresponding to the full fusion protein (GFP-α-synuclein) and free GFP. Quantitative analysis is performed for each sample, quantifying the relative densities of each band. The ratio of free GFP to the GFP-α-synuclein fusion was calculated. This calculated ratio of the miconazole-treated cell lysates was compared to the control (DMSO) to determine a change in 20S CP-mediated degradation.
We perform similar studies to those described above for each derivative that warrants further evaluation, including: a mechanistic analysis (FRET assay using the immunoproteasome and 26S proteasome), dose-response study to determine the EC50 of each compound, and the GFP-α-synuclein cell assay to examine the effectiveness of the miconazole derivative in cells. For the cell assay, miconazole is included as a positive control.

20S CP [3] = experiment: screen of the NIH Clinical Collection, FRET assay with modulated FRET peptide; assay type: biochemical; details: 25 μM, singlet, 1 hr
Description: as §1

immunoproteasome (iCP) = experiment: FRET assay using the immunoproteasome; assay type: biochemical; details: 25 μM
Description: (§2) In order to determine the general mechanism of action of miconazole (i.e. allosteric modulator of a hydrolysis activity or “gate-opener”), a series of FRET assays were performed with 25 μM miconazole, using the immunoproteasome (iCP) and the 26S proteasome. The immunoproteasome contains a high degree of similarity to the standard 20S CP (sCP); however, the catalytic β-subunits have been exchanged, leading to a variation in the hydrolysis activities of this protease compared to the standard 20S CP.^22 The gates of both the immunoproteasome and the 20S CP are identical. The 26S proteasome is the standard 20S CP that has been capped by the 19S regulatory particle, which binds the a-ring of the 20S CP and creates an open-gate conformation.^23 Gate-openers of the 20S CP should still impact the activity of the immunoproteasome; however, because the gate is precluded in the 26S proteasome, this type of stimulator is believed to be ineffective with this isoform of the proteasome Similarly, a stimulator that is able to enhance at least one of the catalytic sites of the 20S CP specifically may be ineffective with the immunoproteasome, as this isoform contains different catalytic subunits than the standard 20S CP. This type of stimulator will still impact the activity of the 26S proteasome, as it contains the standard 20S CP.

26S proteasome = experiment: FRET assay using the 26S proteasome; assay type: biochemical; details: 25 μM
Description: as §2

Compound	% activity increase (increase in 20S proteasome activity) (20S CP [1]) [%]	also measured
Cc1ccc(COC(Cn2cccc2)c2ccc(Cl)cc2Cl)c(C)c1 (stereo not shown) [MD1]	0	–
Fc1ccc(COC(Cn2cccc2)c2ccc(Cl)cc2Cl)c(F)c1 (stereo not shown) [MD2]	0	–
Clc1ccc(C(Cn2cccc2)OCc2ccccc2)c(Cl)c1 (stereo not shown) [MD3]	0	–
Clc1ccc(C(Cn2cccc2)OCc2ccc(Br)cc2Br)c(Cl)c1 (stereo not shown) [MD4]	0	–
Clc1ccc(C(Cn2ccnc2)OCc2ccccc2Cl)c(Cl)c1 (stereo not shown) [MD5]	122	–
Clc1ccc(C(Cn2ccnc2)OCc2c(Cl)cccc2Cl)c(Cl)c1 (stereo not shown) [MD6]	171	–
Clc1ccc(COC(Cn2ccnc2)c2ccc(Cl)cc2Cl)cc1 (stereo not shown) [MD7]	0	–
C#CC[n+]1ccn(CC(OCc2ccc(Cl)cc2Cl)c2ccc(Cl)cc2Cl)c1.[Br-] (stereo not shown) [MD8]	0	–
CC(C)(C)c1ccc(COC(Cn2ccnc2)c2ccc(Cl)cc2Cl)cc1 (stereo not shown) [MDX1]	248	alpha-synuclein degradation (quantitation of gel bands) (20S CP [2]): increase in alpha-synuclein degradation
FC(F)(F)c1ccc(COC(Cn2ccnc2)c2ccc(Cl)cc2Cl)cc1 (stereo not shown) [MDX2]	232	alpha-synuclein degradation (quantitation of gel bands) (20S CP [2]): increase in alpha-synuclein degradation
CC(C)(C)c1ccc(C[n+]2ccn(CC(OCc3ccc(Cl)cc3Cl)c3ccc(Cl)cc3Cl)c2)cc1.[Br-] (stereo not shown) [MDX3]	0	–
Clc1ccc(COC(Cn2ccnc2)c2ccc(Cl)cc2Cl)c(Cl)c1 (stereo not shown) [miconazole, reference compound]	–	effect on standard 20S CP (sCP) activity (20S CP [1]; 25 μM): effective stimulator; also recorded: stimulatory effect; pEC50 (20S CP [1]; read-out: EC50 (effective concentration that induces 50% of its maximum stimulatory effect), dose-response, standard 20S CP (sCP)): 4.70; increase of 20S CP activity (slope vs DMSO control) (20S CP [3]): 299%; effect on immunoproteasome (iCP) activity (immunoproteasome (iCP)): effective stimulator; also recorded: stimulatory effect; effect on 26S proteasome activity (26S proteasome): no effect; enhancement of degradation of α-synuclein over the DMSO control (ratio of free GFP to GFP-α-synuclein) (20S CP [2]; HEK-293T cells, 25 μM, 24 hr): 200-300%
